pEC50: −log10 of the molar value. Converted amounts (≈) assume the structure as drawn. Where two headings read alike, the source gives them in different places. Bridge positions count the residues as written; N and C are the ends. Ends that are not written are not given here. Peptide text beside a SMILES is read from it. I, II: the chains in the order shown.
Key:
C. albicans ATCC10231 = experiment: microbe, parasite or virus in culture; format: cell-based; details: ATCC10231, 48 h
Procedure: (§1) The yeast strains were cultivated and suspended in Sabouraud’s Dextrose (SD) broth diluted to one sixth at a starting OD600 = ∼0.08 in a flat-bottomed microtitre plate. A serial dilution of peptide in the same broth was mixed with the inoculum to give a final peptide concentration of 0.4–22 µM. The antifungal activity was assessed by monitoring the OD600 in cycles of 30 minutes and an orbital shaking at 100 rpm using an Infinite M200 microplate reader (Tecan Group Ltd., Switzerland) for 24/48 h at 37°C. Cultures without peptides were used as positive controls and broth alone or with 22 µM peptide served as negative controls. The minimum concentration required for complete inhibition was assessed by both visible observations as well as by measuring the OD600 and taken as the MIC. Each experiment was repeated in triplicates. For studying the effects of metal ions, SD broth was adjusted with appropriate concentrations of salts to yield a final concentration of 100 and 135 mM for NaCl and KCl and 0.5–2 mM for CaCl2 and MgCl2. MIC determinations were carried out as described above. C. albicans ATCC10231 cells and salts in broth were taken as a positive control. Salts alone (NaCl, KCl, and CaCl2 and MgCl2) in broth or with 22 µM peptide served as a negative control. The effect of 5% human serum on the activities of B4010 against two C. albicans clinical isolates was determined. The human male serum was centrifuged at 13,000 rpm for 10 mins in order to remove the lipids and the supernatant was collected. The MIC values against clinical isolates of C. albicans 2672R and C. albicans 1976R were determined both in standard medium (SD broth) as well as in standard medium containing 5% serum supernatant as before.

C. albicans ATCC2091 = experiment: microbe, parasite or virus in culture; format: cell-based; details: ATCC2091, 48 h
Procedure: as §1

C. albicans ATCC24433 = experiment: microbe, parasite or virus in culture; format: cell-based; details: ATCC24433, 48 h
Procedure: as §1

C. albicans DF1976R = experiment: microbe, parasite or virus in culture; format: cell-based; details: DF1976R, 48 h
Procedure: as §1

C. albicans DF2672R = experiment: microbe, parasite or virus in culture; format: cell-based; details: DF2672R, 48 h
Procedure: as §1

F. solani ATCC36031 = experiment: microbe, parasite or virus in culture; format: cell-based; details: ATCC36031, 48 h
[1] = format: biochemical
Procedure: Small unilamellar vesicles (SUVs) were prepared using PC/PE/PI or PS lipids (5∶2.5∶2.5) containing 15 wt% ergosterol or PC/Cholesterol (10∶1). For the preparation of PC/PE/PI or PS/Erg SUV, the lipids were dissolved in chloroform/methanol (2∶1, v/v) in a glass tube. Ergosterol was dissolved in same solvent and added to lipid mixture to make final ergosterol content of 15 wt%. The Lipid-ergosterol mixture was dried using nitrogen gas to form lipid layer. The film was hydrated in a buffer containing 20 mM PBS (pH 7), vortexed and sonicated. Each cycle of sonication (5 sec, 40°C) was followed by freezing in liquid nitrogen and thawing on a water bath kept at 37°C. The procedure was repeated 5–6 times until an optically clear dispersion appeared. The SUV was divided into two parts. To the first part 50 mM calcein was added and incubated for 1 h. The excess calcein was removed by injecting 100 µL of the calcien-loaded SUV’s into a Ultrahydrogel™ 250 (7.8 mm × 300 mm) column equilibrated with 20 mM PBS (pH 7.0) and eluted isochratically at a flow rate of 1 mL/min for 1.5 column volumes. The calcein-loaded liposomes were mixed with calcein-free liposome (1∶1) to adjust final liposome concentration. Peptide concentration was added to obtain 1∶30 or 1∶15 peptide:liposome ratio. Changes in the fluorescence signal after addition of peptide or Triton X-100 was measured on a PTI spectrofluorometer, using an excitation wavelength of 480 nm and emission wavelength of 512 nm. The Percentage calcein released at each time point was calculated using the equation, [drawing 1]
Where A0 is the observed fluorescence intensity upon addition of peptides, Amin is the average intensity at the baseline (before peptide addition), Amax is the average intensity at the saturation phase after adding 1% Triton X-100. Similar protocol was followed for the preparation of PC/Cholesterol SUVs.

in vitro = format: cell-based, human; details: human
Procedure: (§2) Immortalized normal human conjunctival epithelial cells (IOBANHC) were a gift from Yolanda Diebold at the University of Valladolid, Spain [31]. IOBA-NHC cells were cultured under standard conditions (humidified atmosphere of 5% CO2 at 37°C) in DMEM/F12 supplemented with 1 µg/ml bovine pancreas insulin, 2 ng/ml mouse epidermal growth factor, 0.1 µg/ml cholera toxin, 5 µg/ml hydrocortisone, 10% fetal bovine serum (FBS), 50 UI/ml penicillin, and 50 UI/ml streptomycin. Cells from passages 50–80 were used in all experiments. Every day, normal culture development was observed by phase-contrast microscopy. Cells were removed by gentle trypsin incubation at confluence and counted. They were seeded into 96 well culture plates (Corning, Schiphol-Rijk, The Netherlands) for microtitration analysis of flow cytotoxicity assay (∼10,000 cells/well). Cultures were kept at 37°C for 24 h. Subconfluent cells (culture surface covering nearly 70%) were then exposed to various peptide concentrations (0.22–225 µM). Cytotoxicity was measured periodically using MultiTox-Fluor Multiplex assay kit (Promega, WI, USA) by measuring the AFC fluorescence (λex = 485 and λem = 520 nm). We report the cell viability after 24 h incubation of the cells with the peptides since there was no detectable toxicity even after 8 h of incubation.

[2] = test system: human conjunctival epithelial cells (IOBA-NHC); experiment: in vitro; format: cell-based; details: 24 h
Procedure: as §2

[3] = read-out: MIC in µM against Ca 10231
[4] = read-out: MIC in µM against Ca 2091
[5] = read-out: MIC in µM against Ca 24433
[6] = read-out: MIC in µM against Ca DF1976R
[7] = read-out: MIC in µM against Ca 2672R

Molecule | MIC (C. albicans ATCC10231; read-out: MIC) [µM] | MIC (C. albicans ATCC2091; read-out: MIC) [µM] | MIC (C. albicans ATCC24433; read-out: MIC) [µM] | MIC (C. albicans DF1976R; read-out: MIC) [µM] | MIC (C. albicans DF2672R; read-out: MIC) [µM] | MIC (F. solani ATCC36031) [µM] | calcein release relative to B4010 [1] | MIC (C. albicans ATCC10231; [3]) [µM] | MIC (C. albicans ATCC2091; [4]) [µM] | MIC (C. albicans ATCC24433; [5]) [µM] | MIC (C. albicans DF1976R; [6]) [µM] | MIC (C. albicans DF2672R; [7]) [µM] | viability at 24 h, 237 µM (in vitro) [%] | pEC50 [2] | % Calcein released from PC/PE/PS/Erg [1] [%]
CC(C)[C@H](NC(=O)[C@H](CCCCN)NC(=O)[C@H](CCCNC(=N)N)NC(=O)CNC(=O)[C@@H](N)CCCNC(=N)N)C(=O)N[C@H](C(=O)N[C@@H](CCCNC(=N)N)C(=O)N[C@@H](CCCNC(=N)N)C(=O)NCCCC[C@H](NC(=O)[C@H](CCCNC(=N)N)NC(=O)[C@H](CCCNC(=N)N)NC(=O)[C@@H](NC(=O)[C@@H](NC(=O)[C@H](CCCCN)NC(=O)[C@H](CCCNC(=N)N)NC(=O)CNC(=O)[C@@H](N)CCCNC(=N)N)C(C)C)C(C)C)C(=O)N[C@@H](CCCCN)C(=O)O)C(C)C [B2088] (I: H-RGRKVVRRKK-OH / II: H-RGRKVVRR; amide I:9-II:C; N-terminus and C-terminus assumed) | 5.5 (≈ 12.6 µg/mL) | 1.4 (≈ 3.21 µg/mL) | 2.7 (≈ 6.19 µg/mL) | 0.8 (≈ 1.83 µg/mL) | 0.8 (≈ 1.83 µg/mL) | 10.9 (≈ 25 µg/mL) | decreased calcein release | – | – | – | – | – | – | – | –
CC(C)[C@H](NC(=O)[C@H](CCCCN)NC(=O)[C@H](CCCNC(=N)N)NC(=O)CNC(=O)[C@H](C)N)C(=O)N[C@H](C(=O)N[C@@H](CCCNC(=N)N)C(=O)N[C@@H](CCCNC(=N)N)C(=O)NCCCC[C@H](NC(=O)[C@H](CCCNC(=N)N)NC(=O)[C@H](CCCNC(=N)N)NC(=O)[C@@H](NC(=O)[C@@H](NC(=O)[C@H](CCCCN)NC(=O)[C@H](CCCNC(=N)N)NC(=O)CNC(=O)[C@H](C)N)C(C)C)C(C)C)C(=O)NCCCC[C@H](NC(=O)[C@H](CCCCNC(=O)[C@H](CCCNC(=N)N)NC(=O)[C@H](CCCNC(=N)N)NC(=O)[C@@H](NC(=O)[C@@H](NC(=O)[C@H](CCCCN)NC(=O)[C@H](CCCNC(=N)N)NC(=O)CNC(=O)[C@H](C)N)C(C)C)C(C)C)NC(=O)[C@H](CCCNC(=N)N)NC(=O)[C@H](CCCNC(=N)N)NC(=O)[C@@H](NC(=O)[C@@H](NC(=O)[C@H](CCCCN)NC(=O)[C@H](CCCNC(=N)N)NC(=O)CNC(=O)[C@H](C)N)C(C)C)C(C)C)C(=O)N[C@@H](CCCCN)C(=O)O)C(C)C [B4010_R1A] (I: H-AGRKVVRRKKK-OH / II: H-AGRKVVRRK / III: H-AGRKVVRR / IV: H-AGRKVVRR; amide I:9-IV:C, I:10-II:C, II:9-III:C; N-terminus and C-terminus assumed) | – | – | – | – | – | – | – | 5.9 (≈ 24.9 µg/mL) | 1.5 (≈ 6.33 µg/mL) | 5.9 (≈ 24.9 µg/mL) | 0.75 (≈ 3.17 µg/mL) | 1.5 (≈ 6.33 µg/mL) | 67.6 | < 3.63 | –
CC(C)[C@H](NC(=O)[C@H](CCCCN)NC(=O)[C@H](C)NC(=O)CNC(=O)[C@@H](N)CCCNC(=N)N)C(=O)N[C@H](C(=O)N[C@@H](CCCNC(=N)N)C(=O)N[C@@H](CCCNC(=N)N)C(=O)NCCCC[C@H](NC(=O)[C@H](CCCNC(=N)N)NC(=O)[C@H](CCCNC(=N)N)NC(=O)[C@@H](NC(=O)[C@@H](NC(=O)[C@H](CCCCN)NC(=O)[C@H](C)NC(=O)CNC(=O)[C@@H](N)CCCNC(=N)N)C(C)C)C(C)C)C(=O)NCCCC[C@H](NC(=O)[C@H](CCCCNC(=O)[C@H](CCCNC(=N)N)NC(=O)[C@H](CCCNC(=N)N)NC(=O)[C@@H](NC(=O)[C@@H](NC(=O)[C@H](CCCCN)NC(=O)[C@H](C)NC(=O)CNC(=O)[C@@H](N)CCCNC(=N)N)C(C)C)C(C)C)NC(=O)[C@H](CCCNC(=N)N)NC(=O)[C@H](CCCNC(=N)N)NC(=O)[C@@H](NC(=O)[C@@H](NC(=O)[C@H](CCCCN)NC(=O)[C@H](C)NC(=O)CNC(=O)[C@@H](N)CCCNC(=N)N)C(C)C)C(C)C)C(=O)N[C@@H](CCCCN)C(=O)O)C(C)C [B4010_R3A] (I: H-RGAKVVRRKKK-OH / II: H-RGAKVVRRK / III: H-RGAKVVRR / IV: H-RGAKVVRR; amide I:9-IV:C, I:10-II:C, II:9-III:C; N-terminus and C-terminus assumed) | – | – | – | – | – | – | – | 1.5 (≈ 6.33 µg/mL) | 1.5 (≈ 6.33 µg/mL) | 1.5 (≈ 6.33 µg/mL) | 0.4 (≈ 1.69 µg/mL) | 0.4 (≈ 1.69 µg/mL) | 80.9 | < 3.63 | ~63
CC(C)[C@H](N)C(=O)N[C@@H](CCCNC(=N)N)C(=O)NCC(=O)N[C@@H](CCCNC(=N)N)C(=O)N[C@H](C(=O)N[C@@H](CCCNC(=N)N)C(=O)N[C@@H](CCCCN)C(=O)N[C@@H](CCCNC(=N)N)C(=O)NCCCC[C@H](NC(=O)[C@H](CCCNC(=N)N)NC(=O)[C@H](CCCCN)NC(=O)[C@H](CCCNC(=N)N)NC(=O)[C@@H](NC(=O)[C@H](CCCNC(=N)N)NC(=O)CNC(=O)[C@H](CCCNC(=N)N)NC(=O)[C@@H](N)C(C)C)C(C)C)C(=O)NCCCC[C@H](NC(=O)[C@H](CCCCNC(=O)[C@H](CCCNC(=N)N)NC(=O)[C@H](CCCCN)NC(=O)[C@H](CCCNC(=N)N)NC(=O)[C@@H](NC(=O)[C@H](CCCNC(=N)N)NC(=O)CNC(=O)[C@H](CCCNC(=N)N)NC(=O)[C@@H](N)C(C)C)C(C)C)NC(=O)[C@H](CCCNC(=N)N)NC(=O)[C@H](CCCCN)NC(=O)[C@H](CCCNC(=N)N)NC(=O)[C@@H](NC(=O)[C@H](CCCNC(=N)N)NC(=O)CNC(=O)[C@H](CCCNC(=N)N)NC(=O)[C@@H](N)C(C)C)C(C)C)C(=O)N[C@@H](CCCCN)C(=O)O)C(C)C [Sc_B4010] (I: H-VRGRVRKRKKK-OH / II: H-VRGRVRKRK / III: H-VRGRVRKR / IV: H-VRGRVRKR; amide I:9-IV:C, I:10-II:C, II:9-III:C; N-terminus and C-terminus assumed) | 5.6 (≈ 25.6 µg/mL) | 2.7 (≈ 12.3 µg/mL) | 5.6 (≈ 25.6 µg/mL) | 0.8 (≈ 3.65 µg/mL) | 0.8 (≈ 3.65 µg/mL) | – | decreased calcein release | – | – | – | – | – | – | – | –
RGRKVVRRKK [Monomer] | 78 | – | – | – | 78 | >78 | – | – | – | – | – | – | – | – | –
RGRKVVRRKKRRVVKRGR [Linear Retrodimer] | 22 | 11 | 5.5 | 2.7 | 2.7 | – | – | – | – | – | – | – | – | – | –
